Molecular target: T1, A. thaliana PII (H6PII-tp) (Arabidopsis thaliana, UniProt Q9ZST4)
T1 sequence (Q9ZST4 62-196): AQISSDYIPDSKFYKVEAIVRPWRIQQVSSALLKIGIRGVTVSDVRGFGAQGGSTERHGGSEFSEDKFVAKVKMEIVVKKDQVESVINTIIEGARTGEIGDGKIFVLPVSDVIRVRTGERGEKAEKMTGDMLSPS
Assay: isothermal titration calorimetry
Assay type: binding

Kd: 111 ± 3.4 µM
Structure (SMILES): O=C(O)CCC(=O)C(=O)O [2OG, 2-oxoglutarate]

Reference: paper PMC3410613 (Frontiers in Plant Science, 2012)
